Results taken from patent US20240067931A1, “METHODS AND COMPOSITIONS FOR SMALL MOLECULE BASED PANCREATIC BETA CELL INDUCTION” (Trailhead Biosystems Inc., priority 2022, published 2024).
Ends that are not written are not given here.

Legend:
Format in all cases: cell-based, human
INS = assay: HD-DoE screening for optimal de novo beta cell induction (stage 3 cultures, 3 day perturbation), INS induction
Method: FIG. 18 HD-DoE screening for optimal de novo beta cell induction. Culture of the iPSC cell line CR01 were differentiated to a DFE state for 3 days. These cultures were then incubated in the presence of stage 2 media for an additional 3 days. These cultures were then incubated for an additional 5 days in the presence of GSI-XX and A8301 followed by a 3 day incubation in the presence of a perturbation matrix composed of the compounds indicated in the different panels. This was performed 3 separate times (once for each of the 3 panels). These HD-DoE experiments were then analyzed using MODDE software for maximal induction of insulin. The predicted results are shown.
FIG. 20 HD-DoE screening for optimal de novo beta cell induction. Cultures of the iPSC cell line CR01 were differentiated to a DFE state for 3 days. These cultures were then incubated in the presence of stage 2 media for an additional 3 days. These cultures were then incubated for an additional 5 days in the presence of GSI-XX and A8301 followed by a 3 day incubation in the presence of a perturbation matrix composed of the compounds indicated in the different panels. This was performed 4 separate times (once for each of the 4 panels). These HD-DoE experiments were then analyzed using MODDE software for the maximal induction of Insulin. The predicted results are shown.
(§1) FIGS. 22-25. Dynamic profiling of endocrine sub-type regulation. One of the HD-DoE experiments shown in Example 19 was analyzed using MODDE software and dynamic profiling of the endocrine products GCG, SST and INS are shown.
To define factors contributing to the activation of INS, a series of HD-DoE perturbations were performed using factors chosen to target different aspects of beta cell biology.
To define factors contributing to the activation of INS, a series HD-DoE perturbations were performed using factors chosen to target different aspects of beta cell biology.

HNF1b = assay: HD-DoE perturbation matrix on iPSC line CR01, optimization of HNF1b activation (MODDE modelling)
Description: FIG. 2 Optimization of HNF1B from the iPSC-line CR01. A culture of the iPSC cell line Cr01 was exposed to an HD-DoE perturbation matrix composed of compounds regulating the BMP, retinoid, TGF-β and FGF pathways. Pathways previously shown to be involved in the differentiation of dorsal foregut endoderm were utilized in this analysis. MODDE software was used to predict the optimal condition for maximizing HNF1b activation. Predicted factor additives for this optimization and the relative expression under these conditions for the genes measured are shown.
(§2) To assay the efficacy of a potentially clinical grade iPSC line the NCRM1 cell line was chosen. An HD-DoE based optimization was used to validate the HNF1b and FOXA2 optimizers for this cell line. The HD-DOE method was applied with the intent to find conditions for induction of endoderm-expressed genes, directly from the pluripotent stem cell state. This example utilizes a method previously described by Bukys et al. (2020) Iscience 23:101346. The method employs computerized design geometries to simultaneously test multiple process inputs and offers mathematical modeling of a deep effector/response space. The method allows for finding combinatorial signaling inputs that control a complex process, such as dauring cell differentiation. It allows testing of multiple plausible critical process parameters, as such parameters impact output responses, such as gene expression. Because gene expression provides hallmark features of the phenotype of, for example, a human cell, the method can be applied to identify, and understand, which signaling pathways control cell fate.
(§3) To develop a cell culture recipe for each stage, the impact of agonists and antagonists of multiple signaling pathways (herein called effectors) on the expression of pre-selected genes was tested and modeled. The impact of each effector on gene expression level is defined by a parameter called factor contribution that is calculated for each effector during the modeling. These effectors are small molecules or proteins that are commonly used during stepwise differentiation of stem cells to specific fates. Choice of the effectors were based on current literature on differentiation of stem cells to endoderm progenitors.
(§4) In both optimizations, it was shown that BMP pathway inhibition was the most crucial component of the optimization with factor contribution factors of 31.26 and 31.11 for LDN193189 in both the optimization of HNF1b (FIG. 2) and FOXA2 (FIG. 3), respectively. While MEK pathway inhibition with PD0325901 was critical for both HNF1b and FOXA2 optimization (factor contributions of 15.01 and 29.01, respectively), FOXA2 activation was more dependent on MEK inhibition. The other two pathways that were determined to be crucial for controlling DFE activation were retinoid signaling and TGF-β pathway inhibition. These two pathways had differential effects on FOXA2 and HNF1b.

FOXA2 [1] = assay: Immunohistochemical staining of iPSC (CR01) cultures after three days in additive combinations; conditions: added to RA and LDN, FIG. 9
Description: FIG. 9 Achieving optimal FOXA2 expression. IPSC (CR01) cultures were exposed to media containing different combination of the additive retinoic acid, LDN193189, A8301 and/or PD0325 as indicated on the left side of the stainings. After three days, cultures were fixed and subjected to immunohistochemical staining for the protein antigens of FOXA2 and HNF1b.

FOXA2 [2] = assay: HD-DoE perturbation matrix on iPSC line CR01, optimization of FOXA2 activation (MODDE modelling)
Description: FIG. 3 Optimization of FOXA2 from the iPSC-line CR01. A culture of the iPSC cell line Cr01 was exposed to an HD-DoE perturbation matrix composed of compounds regulating the BMP, retinoid, TGF-β and FGF pathways. Pathways previously shown to be involved in the differentiation of dorsal foregut endoderm. MODDE software was used to predict the optimal condition for maximizing FOXA2 activation. Predicted factor additives for this optimization and the relative expression under these conditions for all genes measured are shown.
as §2, §3, §4

PDX1 = assay: HD-DoE perturbation matrix on DFE culture, modelling for maximal PDX1 induction
Description: FIG. 11 Modelling for maximal PDX1 induction. Cultures of the iPSC cell line Cr01 was differentiated to a DFE state and then subjected to an HD-DoE perturbation matrix composed of the compounds indicated in the figure. MODDE software was used to predict the optimal condition for maximizing PDX1 activation. Predicted factor additives for this optimization and the relative expression under these conditions for the genes measured are shown.
FIG. 12 Coefficient plots show main effectors for pancreatic progenitor generation from a DFE precursor. Coefficients for the HD-DoE design shown in Example 9 are shown for PDX1 and PTF1A. The co-expression of these two genes is indicative of a pancreatic field.
To determine the best way for inducing a pancreatic fate from a DFE progenitor, a subsequent HD-DoE analysis was performed. Exposing a DFE culture to a perturbation matrix composed of all previously identified effectors shown to have a positive effect on PDX1 activation was used to define optimal conditions for PDX1 induction.

INS (beta cell marker) = assay: HD-DoE on DFE culture, dynamic profiling of endocrine sub-type markers: INS; conditions: PDX1 optimizer, dynamic profiling FIG. 14
Description: FIG. 14 Dynamic profiling exploring endocrine cell sub-types. IPSC cultures were differentiated to DFE cultures and then subjected a HD-DoE matrix as outlined in Example 10. MODDE software was used to display the dynamic profiles of GCG, INS and SST, which provide a representable characterization of the different pancreatic endocrine subtypes corresponding to alpha, beta, and delta cells, respectively.

[3] = tested on: GCG, SST, PDX1, PAX4, MAFA and NKX2.2; assay: HD-DoE stage 3 screening, heat map and dynamic profiling of endocrine and beta cell genes; conditions: heat maps FIG. 19 and FIG. 21
Description: FIG. 19 Heat map showing descending factor contributions for the induction of INS. The three HD-DoE experiments shown in Example 17 were used for modeling the maximal expression of several other genes, including GCG, SST, PDX1, PAX4, MAFA and NKX2.2, which are indicative of endocrine cell types with a focus on pancreatic beta cells as indicated at the top of the heat map. The relative factor contributions for the activation of these different genes were then used to generate a secondary heat map representative of the gene induction logic and then ranked according to the compound's ability to induce INS. Dark blue colors indicate a high inductive capacity, while dark red colors indicative of a highly repressive capacity for activation of the genes are shown.
FIG. 21 Heat map showing descending factor contributions for the induction of INS. The four HD-DoE experiments shown in Example 19 were used for modeling the maximal expression of several other genes. These genes were GCG, SST, PDX1, PAX4, MAFA and NKX2.2. These genes are all indicative of endocrine cell types with a focus on the beta cell as indicated at the top of the heatmap. The relative factor contribution for the activation of these different genes were then used to generate a secondary heat map representative of these genes induction logic and then ranked order according to the compounds ability to induce INS. Dark blue indicates high inductive capacity, while dark red is indicative of a highly repressive effect for the activation of the genes shown.
as §1
To ascertain which factors could potentially favor the beta cell over other endocrine cell types, optimizers for markers of the other endocrine cell types and beta cell specific markers were compared. The relative factor contribution from the different optimizers were compared.
Optimizers for the main pancreatic endocrine hormones and beta cell-specific transcription factors were generated to compare their contribution factors for this series of HD-DoE. Compounds that could selectively favor the differentiation of the beta cell over that of the alpha and delta cells were identified in this manner.

de novo beta cells = assay: Immunohistochemical validation of de novo beta cells, day 16 culture (PDX1, C-peptide); conditions: added to stage 3 media, FIG. 26
Method: FIG. 26 Immunohistochemical validation of the generation of the de novo beta cells. Cultures of the iPSC cell line CR01 was differentiated to a DFE state for 3 days. These cultures were then incubated in the presence of stage 2 media for an additional 3 days. These cultures were then incubated for an additional 10 days in the presence of quercetin, GSI-XX and A8301. The cultures were then fixed using formalin and stained for antibodies that recognize the proteins PDX1 and CPEP.
C-peptide staining was performed to distinguish between de novo generation of beta cells and the possible absorption of insulin from the culture media.

[4] = tested on: iPSC derivatives (insulin secreting cells); assay: GSIS assay of bioreactor produced iPSC derivatives with cAMP agonists; conditions: FIG. 39
Method: FIG. 39. Functionality of bioreactor produced insulin secreting cells occurs through cAMP agonism.
A glucose stimulated insulin secretion assay was performed to evaluate the functional maturity of the de novo beta cells generated. Assay samples had growth media removed and were washed once with PBS to remove any trace of media that may have been previously conditioned with secreted C-PEP. All samples were then incubated in the presence of basal media at 37 degrees Celsius for 15 minutes. Basal media consisted of RPMI containing 3 mM glucose. This media was then changed to either media supplemented with 17.5 mM glucose or 30 mM KCl and incubated for an additional 15 minutes.
Fully mature beta cells respond to incretins such as GLP1 through a cAMP mediated response. The iPSC derivatives are non-responsive to both GLP1 or a commonly used agonist of the GLP1 pathway EX4. It was shown that the receptor for these incretins (GLPR1) had very low expression in the iPSC-derivatives (FIG. 40). The rate of insulin secretion was also directly linked to the rate of mitochondrial respiration, as fully mature beta cells lack LDHA expression, making them only capable of metabolizing glucose through mitochondria respiration.

**Q.** What does the source list for Cc1cccc(-c2nn(C(=S)Nc3ccccc3)cc2-c2ccnc3ccccc23)n1 [A8301]?
**A.** effect on INS induction (INS; heat map FIG. 21, dynamic profiling FIGS. 22-25): positive effect on INS induction, though with far less contribution; correlation with HNF1b activation (HNF1b; iPSC line CR01, HD-DoE, FIG. 2): negative correlation; factor contribution, optimization of HNF1b (HNF1b; iPSC line CR01, HD-DoE, FIG. 2): 3.02; FOXA2 activation (immunohistochemical analysis) (FOXA2 [1]): increased FOXA2 activation over RA and LDN alone; correlation with FOXA2 activation (FOXA2 [2]; iPSC line CR01, HD-DoE, FIG. 3): positive correlation; factor contribution, optimization of FOXA2 (FOXA2 [2]; iPSC line CR01, HD-DoE, FIG. 3): 17.72

**Q.** For c1ccc2c(-c3cnn4cc(-c5ccc(N6CCNCC6)cc5)cnc34)ccnc2c1 [LDN193189], which “effect on HNF1b expression” value (HNF1b; dynamic profiling, FIG. 5) is on record?
**A.** The value was “crucial”.

**Q.** What about the “factor contribution, optimization of HNF1b” value (HNF1b; iPSC line CR01, HD-DoE, FIG. 2) of the same compound?
**A.** The value was 31.26.

**Q.** And the “effect on FOXA2 expression” value (FOXA2 [2]; dynamic profiling, FIG. 5)?
**A.** The value was “crucial”.

**Q.** And the “factor contribution, optimization of FOXA2” value (FOXA2 [2]; iPSC line CR01, HD-DoE, FIG. 3)?
**A.** Its value is 31.11.

**Q.** How did the “activation of the pancreatic field (PTF1A and PDX1), coefficient plots” value (PDX1; from DFE, FIG. 12) turn out when O=C(NOC[C@H](O)CO)c1ccc(F)c(F)c1Nc1ccc(I)cc1F [PD0325901] was run?
**A.** Its value is “most critical to control”.

**Q.** And the “factor contribution, optimization of HNF1b” value (HNF1b; iPSC line CR01, HD-DoE, FIG. 2)?
**A.** The value was 15.01.

**Q.** And the “FOXA2 activation (immunohistochemical analysis)” value (FOXA2 [1])?
**A.** Its value is “increased FOXA2 activation over RA and LDN alone”.

**Q.** And the “factor contribution, optimization of FOXA2” value (FOXA2 [2]; iPSC line CR01, HD-DoE, FIG. 3)?
**A.** Its value is 29.01.

**Q.** Cc1c(C)c(NCC(=O)N(C)C2CCN(Cc3ccc(C(N)=O)cc3)CC2)c(C)c(C)c1N [SUN11602] was tested. Which “factor contribution, PDX1 activation” value (PDX1; DFE culture, HD-DoE, FIG. 11) did it give?
**A.** Its value is 4.7.

**Q.** And the “effect on INS activation” value (INS (beta cell marker))?
**A.** Its value is “slightly negative effect”.

**Q.** Which results are given for O=c1c(O)c(-c2ccc(O)c(O)c2)oc2cc(O)cc(O)c12 [quercetin]?
**A.** contribution factor, activation of INS (INS; Example 17, three HD-DoE panels, FIG. 18): 15.6; effect on beta cell specific transcription factors / all genes optimized [3]: beneficial for all genes optimized; endocrine conversion, de novo beta cell generation (immunohistochemical analysis) (de novo beta cells): increased overall endocrine conversion

**Q.** For “GLP1: incretin, cAMP agonist (HAEGTFTSDVSSYLEGQAAKEFIAWLVKGR; ends and bridges not checked; UniProt P01275 98-127, looked up)”, which “increase in insulin secretion in GSIS assay” value [4] is on record?
**A.** The value was “did not occur”.
